In PubChem BioAssay (NCI):
Values joined by “and” are separate entries in the source; they are usually repeats but may differ in a detail not shown here. Equal entries are not always repeated.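 Five concentrations, 48 hours, 96-well plates. GI50 = concentration required for 50% inhibition of growth. At the TGI there is no net growth.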

The compounds below were run on SF-295 CNS (assay: NCI anticancer screen, dose series, 48 h).

SMILES	TGI [µM]	GI50
c1ccc(NCn2cnc3ccccc32)cc1	> 100	
CC1SC(c2ccc(F)cc2)N(NC(=O)C(O)c2ccccc2)C1=O (centres undefined)	> 100	> 100 µM
N#C/C(=C\c1cccc(Cl)c1Cl)c1ccccc1	60.4	
COCCOc1ccc(-c2nc3ccc(-c4nc5ccc(N6CCN(C)CC6)cc5[nH]4)cc3[nH]2)cc1	15.7	1.38 µM
Nc1n[nH]c2cccc(C#Cc3cccc(C(=O)Nc4ccc(CN5CCOCC5)c(C(F)(F)F)c4)c3)c12	6.1	2.03 µM
COc1ccc(-c2cn[nH]c2-c2cc(OC)c(OC)c(OC)c2)cc1	0.0379	
N[C@@H]1CCCC[C@@H]1N.O=P([O-])([O-])CN(CCN(CP(=O)([O-])[O-])CP(=O)([O-])[O-])CP(=O)([O-])[O-].[Pt+2]	> 25	> 25 µM
CCC(=C/[C@H](C)C/C=C/C(C)=C/[C@@H](C)C(=O)[C@@H](C)[C@H](O)[C@@H](C)CC)/C=C/[C@H]1OC(=O)C=C[C@@H]1C	1.43	< 0.01 µM
COc1ccc(OC)c(N2CC(N)C2=O)c1 (centres undefined)	> 100	
Nc1ccccc1SC(CC(=O)c1ccccc1)c1cccc([N+](=O)[O-])c1 (centres undefined)	30.3	16.2 µM
O=C1CCCCN1c1ccccc1C#C/C=C\C#Cc1ccccc1C(F)(F)F	3.16	1.11 µM
O=C(/C=C/c1ccc([N+](=O)[O-])cc1)c1ccc(NCc2nc3ccccc3[nH]2)cc1	18.1	
CN1CC[C@@H](NC(=O)Nc2ccc(C#N)cc2)C[C@@H]1c1nc2ccccc2[nH]1	> 100	> 100 µM
CN(C)CC1CC/C(=C\c2ccc(O)cc2)C1=O (centres undefined)	34.5	
O=c1ccc2ccccc2cc1[O-].O=c1ccc2ccccc2cc1[O-].[O]=[U+2]=[O]	63.5	17.7 µM
Cc1ccc(-n2c3nc(=O)[nH]c(=O)c-3cc3cc([N+](=O)[O-])ccc32)cc1	37.3	15.9 µM
O=C1NC(=NC(CO)Cc2ccccc2)S/C1=C\c1ccc2ncccc2c1 (centres undefined)	> 25	> 25 µM and 5.5 µM
COC(=O)C(CCCN1C(=O)c2ccccc2C1=O)C(=O)OC	> 100	
COc1cc(/C(C#N)=C/c2nc3c(N4CCOCC4)nc(Cl)nc3n2C)cc(OC)c1OC	1.49	< 0.01 µM
Cc1nnc(NC(=O)c2nc(S(=O)(=O)Cc3ccc(F)cc3)ncc2Cl)s1	30.7	15.9 µM
CC(C)[C@@H]1C=C2CC[C@H]3[C@](C)(CN)CCC[C@]3(C)[C@H]2CC1	4.29	1.9 µM

These compounds were tested on HT29 colon (assay: NCI anticancer screen, dose series, 48 h).

SMILES	GI50	TGI
CC1(COc2ccc3c(c2)ncn3-c2ccc3cccc(N4CCC(N)CC4)c3n2)COC1	2920 nM and 3290 nM	7.99 µM and > 10 µM
O=C(/C=C/c1ccc(O)cc1)c1ccc(O)cc1		48.5 µM
S=c1sc2c(n1-c1ccccc1)NC=NC2S (centres undefined)		> 100 µM
CCOC(=O)C1=C(C)N(c2ccc(F)cc2F)[C@]2(C#N)C(O)=C(Cl)C(Cl)=C(O)[C@]12C#N	> 100000 nM	> 100 µM
Cc1csc(-c2nnc(Nc3ccc(Oc4ncccc4-c4ccnc(N)n4)cc3)c3ccccc23)c1	558 nM	> 100 µM
CCCCCCCCCCn1cc[n+](C)c1	2230 nM	19.2 µM
O=C(CCCSc1nc(-c2ccccc2)cc(-c2ccccc2)n1)NO	2460 nM	12.2 µM
c1ccc(NCn2cnc3ccccc32)cc1		> 100 µM
CC1SC(c2ccc(F)cc2)N(NC(=O)C(O)c2ccccc2)C1=O (centres undefined)	> 100000 nM	> 100 µM
N#C/C(=C\c1cccc(Cl)c1Cl)c1ccccc1		> 100 µM
COCCOc1ccc(-c2nc3ccc(-c4nc5ccc(N6CCN(C)CC6)cc5[nH]4)cc3[nH]2)cc1	579 nM	> 100 µM
Nc1n[nH]c2cccc(C#Cc3cccc(C(=O)Nc4ccc(CN5CCOCC5)c(C(F)(F)F)c4)c3)c12	1890 nM	12.2 µM
COc1ccc(-c2cn[nH]c2-c2cc(OC)c(OC)c(OC)c2)cc1	25.8 nM	0.336 µM
N[C@@H]1CCCC[C@@H]1N.O=P([O-])([O-])CN(CCN(CP(=O)([O-])[O-])CP(=O)([O-])[O-])CP(=O)([O-])[O-].[Pt+2]	> 25000 nM	> 25 µM
